Columns and labels:
Mouse colon 26 cell line = assay: Growth of colon 26 cancer tissue, comparison with doxorubicin (Example 21); assay type: in vivo, mice
Protocol: The mouse colon 26 cell line used in Example 18 was subcutaneously injected at a dose of 1×10^6 cells into mice and cultured for 5 days.
After cultivation for 5 days, PBS, PBS containing 10 μg of the extruded microvesicles loaded with 3 μg of doxorubicin (doxorubicin-microvesicle), or PBS containing 3, 15 or 60 μg of doxorubicin was injected at a dose of 100 μl once every day via the tail vein into mouse groups, each consisting of 5. The volume of cancer tissue was monitored once every two days. The tumor volume was calculated by the equation v=1s^2/2 wherein (1) is a length of the longest axis of a tumor and (s) is a length of the axis perpendicular to the longest axis.

[1] = 6 hours after tail vein injection; 100 μg microvesicles or 30 μg doxorubicin
Protocol: After cultivation for 10 days, PBS, PBS containing 100 μg of the extruded microvesicles (doxorubicin-microvesicle), or PBS containing 30 μg of doxorubicin was injected at a dose of 100 μl into mice via the tail vein.
Six hours after the injection, cancer tissue, the spleen and the heart were excised from the mice and fixed for 24 hours in 4% paraformaldehyde. For dehydration, the fixed tissues were immersed once in 70% ethanol, four times in 95% ethanol, three times in 100% ethanol, and three times in 100% xylene, each time for one hour in all cases. Thereafter, the tissues were embedded in paraffin, cut into sections 4 μm thick, and attached onto slide glass. The paraffin was melted by incubation at 60° C. for one hour. For hydration, the tissues were immersed three times in 100% xylene, four times in 100% ethanol, and three times in 95% ethanol, each time for one min in all cases, followed by storage for 5 min in flowing water.
After the hydration, the tissues were subjected to immunohistochemistry to examine whether doxorubicin was delivered to each tissue. In this regard, antigen retrieval was performed using a microwave method. The tissues were placed in 10 mM sodium citrate buffer and irradiated three times, each for five min, with microwaves. The tissues were cooled in flowing water and blocked for 2 hours with TBS containing 5% horse serum and 0.02% Triton X-100. […]

[2] = White blood cell count in blood of treated mice; assay type: in vivo; settings: 60 μg of doxorubicin daily
Protocol: Mice were anesthetized by abdominal injection of 150 μL of an anesthetic comprising a mixture of 1:3:6 ketamine:rumpon:PBS, and blood samples were taken from the heart and placed in tubes containing an anti-coagulant agent. A mixture of 10 μL of blood and 90 μL of 1% HCl was stored at room temperature for 7 min, and after 10 μL of the mixture was put into a hematocytometer, and white cells were counted.

COc1cccc2c1C(=O)c1c(O)c3c(c(O)c1C2=O)C[C@@](O)(C(=O)CO)C[C@@H]3O[C@H]1C[C@H](N)[C@H](O)[C@H](C)O1 [doxorubicin]
equi-effective doxorubicin dose relative to the load of doxorubicin on the microvesicles (Mouse colon 26 cell line; 60 μg versus 3 μg load): 20 fold | dose of doxorubicin alone with the same therapeutic effect as the doxorubicin-loaded microvesicles (Mouse colon 26 cell line; daily tail vein injection, colon 26 tumor): 60 µg | doxorubicin delivered to the heart [1]: delivered in a large amount to the heart | doxorubicin in cancer blood vessels [1]: cannot by itself be delivered | reduction of white blood cell count compared to the control [2]: at least 50%

From US10675244B2, “Microvesicles derived from nucleated, mammalian cells and use thereof” (MDIMUNE INC., priority 2009, dated 2020)
